Measured values published in patent US5639751A, “N-acyl-2,3-benzodiazepine derivatives for treating acute and chronic neurodegenerative disorders” (priority 1990, dated 1997).
Counter-ions that a name gives are not always drawn. Like-named read-outs stand apart in the source and are kept apart here.

Experiments:
[1] = test system: male CFLP mice; experiment: Anticonvulsive effect in mice, electroshock test; assay type: in vivo; conditions: Mus musculus, po, read-out: ED50 p.o., ES (electroshock)
Method: (§1) The anticonvulsive effect of the compounds of the formula (I) was measured by using the electroshock test [J. Pharmacol. Exp. Ther. 106, 319 (1952)], furthermore by using various chemical agents such as pentetrazole [J. Pharmacol. Exp. Ther. 108, 168 (1953)], strychnine [J. Pharmacol. Exp. Ther. 129, 75 (1960)], bemegride, nicotine and 4-aminopyridine. The test compounds were orally administered in 3 doses, to 10 male CFLP mice per dose.

[2] = test system: male CFLP mice; experiment: Anticonvulsive effect in mice, pentetrazole; assay type: in vivo; conditions: Mus musculus, po, read-out: ED50 p.o., Pentetrazole
Method: as §1

[3] = test system: CFLP mice; experiment: Inclined screen test in mice; assay type: in vivo; conditions: Mus musculus, ip, read-out: ED50 i.p., inclined screen test
From the text: In Randall's inclined screen test [J. Pharmacol. Exp. Ther. 129, 163 (1960)] the compounds were applied in 3 i.p. doses to 10 CFLP mice per dose.

[4] = test system: mice; experiment: Rotarod test in mice; assay type: in vivo; conditions: Mus musculus, ip, read-out: ED50 i.p., rotarod test
From the text: The rotarod test was used to measure muscular tone and motor co-ordination [J. Am. Pharm. Assoc. 46, 208 (1957)].

[5] = test system: male CFLP mice; experiment: Anticonvulsive effect in mice, strychnine; assay type: in vivo; conditions: Mus musculus, po, read-out: ED50 p.o., Strychnine
Method: as §1

[6] = test system: male CFLP mice; experiment: Anticonvulsive effect in mice, bemegride; assay type: in vivo; conditions: Mus musculus, po, read-out: ED50 p.o., Bemegride
Method: as §1

[7] = test system: male CFLP mice; experiment: Anticonvulsive effect in mice, nicotine; assay type: in vivo; conditions: Mus musculus, po
Method: as §1

[8] = test system: male CFLP mice; experiment: Anticonvulsive effect in mice, 4-aminopyridine; assay type: in vivo; conditions: Mus musculus, po, read-out: ED50 p.o., 4-AP (4-aminopyridine)
Method: as §1

[9] = Acute toxicity in mice; conditions: mouse, in vivo
Method: The cause of mortality was respiratory insufficiency developing within 1 to 2 hours after i.p. administration and within 10 to 20 hours after oral application.

Compound	ED50 ([1]; mice, p.o.)	ED50 ([2]; mice, p.o.)	ED50 [3]	ED50 [4]	ED50 [1]	ED50 [2]	ED50 [5]	ED50 [6]	ED50 [7]	ED50 [8]	ED50 ([6]; mice, p.o.)	ED50 ([8]; mice, p.o.)	LD50 ([9]; ip, read-out: LD50 i.p.)	LD50 ([9]; po, read-out: LD50 p.o.)	ED50 ([3]; mice, i.p.)	ED50 ([4]; mice, i.p.)
CC1=NN=C(c2ccc(NC(=O)C(C)N)cc2)c2cc3c(cc2C1)OCO3 (racemic) [Example 69]	57 mg/kg	> 100 mg/kg	–	–	–	–	–	–	–	–	–	–	–	–	–	–
NCC(CC(=O)O)c1ccc(Cl)cc1 (stereo not drawn) [Baclofen, β-(aminomethyl)-4-chlorobenzeneprioionic acid, reference compound]	–	–	26 mg/kg	12.5 mg/kg	–	–	–	–	–	–	–	–	–	–	–	–
CCC(=O)N1N=C(c2ccc(N)cc2)c2cc3c(cc2CC1C)OCO3 (stereo not shown) [Example 18]	–	–	31 mg/kg	7.5 mg/kg	17.5 mg/kg	29 mg/kg	> 100 mg/kg	20 mg/kg	16 mg/kg	16 mg/kg	–	–	–	–	–	–
CC(=O)N(C(C)=O)c1ccc(C2=NN(C(C)=O)C(C)Cc3cc4c(cc32)OCO4)cc1 (stereo not shown) [Example 39, 1-(4-Diacetylaminophenyl)-3-acetyl-4-methyl-7,8-methylenedioxy-3,4-dihydro-5H-2,3-benzodiazepine]	53 mg/kg	170 mg/kg	–	–	–	–	–	–	–	–	> 200 mg/kg	29 mg/kg	271 mg/kg	> 600 mg/kg	–	–
CC(=O)Nc1ccc(C2=NN(C(C)=O)C(C)Cc3cc4c(cc32)OCO4)cc1 (stereo not shown) [Example 42, 1-(4-Acetylaminophenyl)-3-acetyl-4-methyl-7,8-methylenedioxy-3,4-dihydro-5H-2,3-benzodiazepine]	24 mg/kg	33 mg/kg	–	–	–	–	28 mg/kg	–	155 mg/kg	–	24 mg/kg	34 mg/kg	120 mg/kg	185 mg/kg	42 mg/kg	8.1 mg/kg
CCC(=O)Nc1ccc(C2=NN(C(=O)CC)C(C)Cc3cc4c(cc32)OCO4)cc1 (stereo not shown) [Example 45, 1-(4-Propionylaminophenyl)-3-propionyl-4-methyl-7,8-methylenedioxy-3,4-dihydro-5H-2,3-benzodiazepine]	27 mg/kg	44 mg/kg	–	–	–	–	> 100 mg/kg	–	23 mg/kg	–	51 mg/kg	34 mg/kg	98.4 mg/kg	206 mg/kg	35 mg/kg	10 mg/kg
CC(=O)N1N=C(c2ccc(NC=O)cc2)c2cc3c(cc2CC1C)OCO3 (stereo not shown) [Example 46]	20 mg/kg	57 mg/kg	–	–	–	–	> 100 mg/kg	–	80 mg/kg	–	56 mg/kg	17 mg/kg	173 mg/kg	162 mg/kg	–	–
CCC(=O)Nc1ccc(C2=NN(C(C)=O)C(C)Cc3cc4c(cc32)OCO4)cc1 (stereo not shown) [Example 48]	10.5 mg/kg	30.5 mg/kg	–	–	–	–	> 100 mg/kg	–	25 mg/kg	–	33 mg/kg	20 mg/kg	103 mg/kg	149 mg/kg	20.5 mg/kg	7.2 mg/kg
CCC(=O)N1N=C(c2ccc(NC(C)=O)cc2)c2cc3c(cc2CC1C)OCO3 (stereo not shown) [Example 49]	25 mg/kg	53 mg/kg	–	–	–	–	> 100 mg/kg	–	45 mg/kg	–	43 mg/kg	28 mg/kg	–	–	36 mg/kg	9.4 mg/kg
COCC(=O)Nc1ccc(C2=NN(C(C)=O)C(C)Cc3cc4c(cc32)OCO4)cc1 (stereo not shown) [Example 52]	17.5 mg/kg	36 mg/kg	–	–	–	–	> 100 mg/kg	–	13.5 mg/kg	–	29 mg/kg	24 mg/kg	117 mg/kg	188 mg/kg	21 mg/kg	4.8 mg/kg
CCC(=O)Nc1ccc(C2=NN(C=O)C(C)Cc3cc4c(cc32)OCO4)cc1 (stereo not shown) [Example 60]	24 mg/kg	62 mg/kg	–	–	–	–	–	–	–	–	–	–	–	–	–	–
CC(=O)N1N=C(c2ccc(NC(=O)C(F)(F)F)cc2)c2cc3c(cc2CC1C)OCO3 (stereo not shown) [Example 62]	12.5 mg/kg	56 mg/kg	–	–	–	–	> 100 mg/kg	–	31 mg/kg	–	36 mg/kg	29 mg/kg	136 mg/kg	160 mg/kg	25.5 mg/kg	7.8 mg/kg
CC1=NN=C(c2ccc(NC(=O)CN)cc2)c2cc3c(cc2C1)OCO3 [Example 66, 1-(4-Glycylaminophenyl)-4-methyl-7,8-methylenedioxy-5H-2,3-benzodiazepine]	42 mg/kg	135 mg/kg	–	–	–	–	105 mg/kg	–	105 mg/kg	–	> 100 mg/kg	84 mg/kg	205 mg/kg	281 mg/kg	52 mg/kg	18.5 mg/kg
CC(=O)N1N=C(c2ccc(NC(=O)CN)cc2)c2cc3c(cc2CC1C)OCO3 (stereo not shown) [Example 73]	16 mg/kg	62 mg/kg	–	–	–	–	> 100 mg/kg	–	53 mg/kg	–	49 mg/kg	28 mg/kg	143 mg/kg	168 mg/kg	27 mg/kg	6.3 mg/kg
CC(=O)N1N=C(c2ccc(NC(=O)CN(C)C)cc2)c2cc3c(cc2CC1C)OCO3 (stereo not shown) [Example 107, 1-[4-(N,N-dimethylglycylamino)phenyl]-3-acetyl-4-methyl-7,8-methylenedioxy-3,4-dihydro-5H-2,3-benzodiazepine]	23.5 mg/kg	120 mg/kg	–	–	–	–	22.8 mg/kg	–	34.2 mg/kg	–	25.4 mg/kg	36.8 mg/kg	–	–	–	–
CCN(CC)CC(=O)Nc1ccc(C2=NN(C(C)=O)C(C)Cc3cc4c(cc32)OCO4)cc1 (stereo not shown) [Example 108, 1-[4-(N,N-diethylglycylamino)phenyl]-3-acetyl-4-methyl-7,8-methylenedioxy-3,4-dihydro-5H-2,3-benzodiazepine]	27 mg/kg	> 100 mg/kg	–	–	–	–	–	–	–	–	–	–	–	–	–	–
CC(=O)N1N=C(c2ccc(NC(=O)CN3CCCC3)cc2)c2cc3c(cc2CC1C)OCO3 (stereo not shown) [Example 109, 1-[4-(1-Pyrrolidinoacetylamino)phenyl]-3-acetyl-4-methyl-7,8-methylenedioxy-3,4-dihydro-5H-2,3-benzodiazepine hydrogen fumarate]	21 mg/kg	> 100 mg/kg	–	–	–	–	–	–	–	–	–	–	–	–	–	–
CNC(=O)N1N=C(c2ccc(NC(=O)CN)cc2)c2cc3c(cc2CC1C)OCO3 (stereo not shown) [Example 115, 1-(4-Glycylaminophenyl)-3-methylcarbamoyl-4-methyl-7,8-methylenedioxy-3,4-dihydro-5H-2,3-benzodiazepine]	17.1 mg/kg	23.9 mg/kg	–	–	–	–	–	–	–	–	–	–	90.7 mg/kg	200 to 250 mg/kg	16.1 mg/kg	7.3 mg/kg
O=C1NC(=O)C(c2ccccc2)(c2ccccc2)N1 [Phenytoin, 5,5-diphenyl-2,4-imidazolidinedione, reference compound]	10 mg/kg	> 400 mg/kg	–	–	–	–	160 mg/kg	–	12 mg/kg	–	> 200 mg/kg	–	–	–	–	–
